Measurements from ChEMBL document CHEMBL3817848, “Synthesis and in vitro α-chymotrypsin inhibitory activity of 6-chlorobenzimidazole derivatives” (Bioorg Med Chem, 2016).

Key:
[1] = species on record: Homo sapiens; experiment: Inhibition of alpha-chymotrypsin (unknown origin) using N-succinyl-L-phenylalanine-p-nitroanilide as substrate at 500 uM preincubated for 25 mins by microplate reader method
[2] = Inhibition of alpha-chymotrypsin (unknown origin) using N-succinyl-L-phenylalanine-p-nitroanilide as substrate preincubated for 25 mins by microplate reader method; set-up: species or system Homo sapiens
[3] = Competitive inhibition of alpha-chymotrypsin (unknown origin) using N-succinyl-L-phenylalanine-p-nitroanilide as substrate; set-up: species or system Homo sapiens
[4] = Mixed inhibition of alpha-chymotrypsin (unknown origin) using n-succinyl-l-phenylalanine-p-nitroanilide as substrate; set-up: species or system Homo sapiens

SMILES	inhibition [1]	IC50 [2]	Ki [3]	Ki [4]
Clc1ccc(-c2nc3ccc(Cl)cc3[nH]2)c(Cl)c1	> 50%	35.6 µM	39.6 µM	–
Clc1ccc2nc(-c3c(Cl)cccc3Cl)[nH]c2c1	> 50%	96.4 µM	99.8 µM	–
COc1ccc(-c2nc3ccc(Cl)cc3[nH]2)cc1OC	> 50%	14.8 µM	16.4 µM	–
Clc1ccc2nc(-c3cccc4ccccc34)[nH]c2c1	> 50%	20.9 µM	25.3 µM	–
O=[N+]([O-])c1ccc(Cl)c(-c2nc3ccc(Cl)cc3[nH]2)c1	< 50%	> 500 µM	–	–
Cn1c(-c2ccco2)nc2ccc(Cl)cc21	> 50%	93.1 µM	71.4 µM	–
Oc1ccc(-c2nc3ccc(Cl)cc3[nH]2)c(O)c1	> 50%	34.6 µM	33.3 µM	–
Clc1ccc2[nH]c(/C=C/c3ccccc3)nc2c1	< 50%	486 µM	–	–
CCOc1cc(-c2nc3ccc(Cl)cc3[nH]2)ccc1O	> 50%	15.9 µM	17.3 µM	–

The next lines start with the values.

inhibition [1]	IC50 [2]	Ki [3]	Ki [4]	SMILES
> 50%	118 µM	79.3 µM	–	Fc1ccccc1-c1nc2ccc(Cl)cc2[nH]1
< 50%	> 500 µM	–	–	Clc1ccc2[nH]c(-c3ccccc3)nc2c1
< 50%	428 µM	–	–	CC(C)c1ccc(-c2nc3ccc(Cl)cc3[nH]2)cc1
> 50%	48.9 µM	50.1 µM	–	Clc1ccc2nc(-c3cccnc3)[nH]c2c1
> 50%	24.2 µM	17.5 µM	–	CN(C)c1ccc(-c2nc3ccc(Cl)cc3[nH]2)cc1
< 50%	> 500 µM	–	–	N#Cc1ccc(-c2nc3cc(Cl)ccc3[nH]2)cc1
< 50%	> 500 µM	–	–	Oc1ccccc1-c1nc2cc(Cl)ccc2[nH]1
> 50%	38.1 µM	–	36.5 µM	COc1cccc(-c2nc3ccc(Cl)cc3[nH]2)c1
< 50%	458 µM	–	–	Clc1ccc2nc(-c3cccc(Br)c3)[nH]c2c1
< 50%	471 µM	–	–	O=[N+]([O-])c1ccc(-c2nc3cc(Cl)ccc3[nH]2)cc1
< 50%	> 500 µM	–	–	Cc1ccc(-c2nc3cc(Cl)ccc3[nH]2)cc1
